Reference: ChEMBL document CHEMBL1201862, “PubChem BioAssay data set” (2004)
Active and inactive are the calls of the source.

How the values were obtained:
Protein Rev = Protein Rev (Human immunodeficiency virus type 1 group M subtype B (isolate WMJ22)(HIV-1), UniProt P05866); assay: HIV-1 Rev-RRE RNA binding disruptors, dose response, biochemical, protein-RNA interaction (AID 842); set-up: species or system Human immunodeficiency virus 1
[1] = Counterscreen for IDE inhibitors: Luminescence-based cell-based high throughput dose response assay to identify compounds that are cytotoxic to HEK cells. [Related pubchem assays: 434962 (Primary screen (IDE inhibitors in singlicate)), 449730 (Counterscreen (Cytotoxicity in triplicate)), 435028 (Confirmation (IDE inhibitors in triplicate)) …; type: functional; conditions: HEK293
Insulin-degrading enzyme = target: T1, Insulin-degrading enzyme (Homo sapiens, UniProt P14735); assay: Dose Response: Fluorescence polarization-based cell-based high throughput dose response assay for inhibitors of insulin-degrading enzyme (IDE). [Related pubchem assays: 434962 (Primary screen (IDE inhibitors in singlicate)), 449730 (Counterscreen (Cytotoxicity in triplicate)), 435028 (Confirmation (IDE inhibitors in triplicate)), 434984 (Summary …; type: functional
T1 sequence (P14735 whole entry): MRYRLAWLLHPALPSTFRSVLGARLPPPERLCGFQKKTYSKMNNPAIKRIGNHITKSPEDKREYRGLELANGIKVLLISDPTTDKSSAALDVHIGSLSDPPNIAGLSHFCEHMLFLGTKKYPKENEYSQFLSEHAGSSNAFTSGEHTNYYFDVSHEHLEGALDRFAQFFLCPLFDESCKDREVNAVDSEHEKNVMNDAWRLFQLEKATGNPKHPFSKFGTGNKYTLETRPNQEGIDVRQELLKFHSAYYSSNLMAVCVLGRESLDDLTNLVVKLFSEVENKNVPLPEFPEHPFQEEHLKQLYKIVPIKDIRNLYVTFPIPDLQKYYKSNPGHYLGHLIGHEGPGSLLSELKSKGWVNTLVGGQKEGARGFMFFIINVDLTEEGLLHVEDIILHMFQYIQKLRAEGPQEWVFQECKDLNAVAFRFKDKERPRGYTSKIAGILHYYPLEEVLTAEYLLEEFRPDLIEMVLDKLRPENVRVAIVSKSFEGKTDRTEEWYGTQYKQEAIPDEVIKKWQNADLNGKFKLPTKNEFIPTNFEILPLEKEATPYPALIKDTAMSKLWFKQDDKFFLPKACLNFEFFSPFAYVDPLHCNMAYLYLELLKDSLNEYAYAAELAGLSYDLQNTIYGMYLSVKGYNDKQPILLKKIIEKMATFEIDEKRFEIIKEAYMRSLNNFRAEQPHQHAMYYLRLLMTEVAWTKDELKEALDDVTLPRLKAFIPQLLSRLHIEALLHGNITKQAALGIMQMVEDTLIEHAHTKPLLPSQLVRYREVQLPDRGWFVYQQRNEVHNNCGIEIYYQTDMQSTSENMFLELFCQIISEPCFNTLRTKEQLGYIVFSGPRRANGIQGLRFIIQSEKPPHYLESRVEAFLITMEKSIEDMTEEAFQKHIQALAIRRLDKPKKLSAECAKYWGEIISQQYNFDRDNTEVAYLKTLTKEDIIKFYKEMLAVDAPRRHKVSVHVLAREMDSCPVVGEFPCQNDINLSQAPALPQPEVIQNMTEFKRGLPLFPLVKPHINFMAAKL

[2] = Luminescence Cell-Based Dose Retest to Confirm Inhibitors of Cancer Stem Cells. [Related pubchem assays (depositor defined):AID2717, AID2721]; type: functional, Homo sapiens; conditions: Homo sapiens
[3] = target: T2, Rac GTPase-activating protein 1 (Homo sapiens, UniProt Q9H0H5); assay: MgcRacGAP GTPase-activating activity inhibitors, confirmation, biochemical, ADP Hunter fluorescence, primary and confirmatory (AID 624330); type: functional
T2 sequence (Q9H0H5 whole entry): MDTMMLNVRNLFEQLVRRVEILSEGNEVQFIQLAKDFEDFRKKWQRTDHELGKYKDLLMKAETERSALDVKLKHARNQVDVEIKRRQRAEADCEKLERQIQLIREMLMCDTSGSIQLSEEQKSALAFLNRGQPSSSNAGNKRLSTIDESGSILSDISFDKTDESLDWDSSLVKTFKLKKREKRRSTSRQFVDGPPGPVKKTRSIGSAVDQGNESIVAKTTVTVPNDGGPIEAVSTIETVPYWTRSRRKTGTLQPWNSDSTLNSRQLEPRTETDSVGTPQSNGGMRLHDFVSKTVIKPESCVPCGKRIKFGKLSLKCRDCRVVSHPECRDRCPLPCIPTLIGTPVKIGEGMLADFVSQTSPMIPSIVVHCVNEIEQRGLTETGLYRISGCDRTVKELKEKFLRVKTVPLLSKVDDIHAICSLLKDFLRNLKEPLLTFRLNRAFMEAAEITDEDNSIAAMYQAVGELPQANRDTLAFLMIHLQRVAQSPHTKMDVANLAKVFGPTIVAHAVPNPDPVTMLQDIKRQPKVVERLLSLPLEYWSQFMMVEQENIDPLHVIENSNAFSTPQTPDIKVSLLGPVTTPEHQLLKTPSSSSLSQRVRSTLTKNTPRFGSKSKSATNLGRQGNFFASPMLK

[4] = target: T3, Histone-lysine N-methyltransferase NSD2 (Homo sapiens, UniProt O96028); type: biochemical
T3 sequence (O96028 whole entry): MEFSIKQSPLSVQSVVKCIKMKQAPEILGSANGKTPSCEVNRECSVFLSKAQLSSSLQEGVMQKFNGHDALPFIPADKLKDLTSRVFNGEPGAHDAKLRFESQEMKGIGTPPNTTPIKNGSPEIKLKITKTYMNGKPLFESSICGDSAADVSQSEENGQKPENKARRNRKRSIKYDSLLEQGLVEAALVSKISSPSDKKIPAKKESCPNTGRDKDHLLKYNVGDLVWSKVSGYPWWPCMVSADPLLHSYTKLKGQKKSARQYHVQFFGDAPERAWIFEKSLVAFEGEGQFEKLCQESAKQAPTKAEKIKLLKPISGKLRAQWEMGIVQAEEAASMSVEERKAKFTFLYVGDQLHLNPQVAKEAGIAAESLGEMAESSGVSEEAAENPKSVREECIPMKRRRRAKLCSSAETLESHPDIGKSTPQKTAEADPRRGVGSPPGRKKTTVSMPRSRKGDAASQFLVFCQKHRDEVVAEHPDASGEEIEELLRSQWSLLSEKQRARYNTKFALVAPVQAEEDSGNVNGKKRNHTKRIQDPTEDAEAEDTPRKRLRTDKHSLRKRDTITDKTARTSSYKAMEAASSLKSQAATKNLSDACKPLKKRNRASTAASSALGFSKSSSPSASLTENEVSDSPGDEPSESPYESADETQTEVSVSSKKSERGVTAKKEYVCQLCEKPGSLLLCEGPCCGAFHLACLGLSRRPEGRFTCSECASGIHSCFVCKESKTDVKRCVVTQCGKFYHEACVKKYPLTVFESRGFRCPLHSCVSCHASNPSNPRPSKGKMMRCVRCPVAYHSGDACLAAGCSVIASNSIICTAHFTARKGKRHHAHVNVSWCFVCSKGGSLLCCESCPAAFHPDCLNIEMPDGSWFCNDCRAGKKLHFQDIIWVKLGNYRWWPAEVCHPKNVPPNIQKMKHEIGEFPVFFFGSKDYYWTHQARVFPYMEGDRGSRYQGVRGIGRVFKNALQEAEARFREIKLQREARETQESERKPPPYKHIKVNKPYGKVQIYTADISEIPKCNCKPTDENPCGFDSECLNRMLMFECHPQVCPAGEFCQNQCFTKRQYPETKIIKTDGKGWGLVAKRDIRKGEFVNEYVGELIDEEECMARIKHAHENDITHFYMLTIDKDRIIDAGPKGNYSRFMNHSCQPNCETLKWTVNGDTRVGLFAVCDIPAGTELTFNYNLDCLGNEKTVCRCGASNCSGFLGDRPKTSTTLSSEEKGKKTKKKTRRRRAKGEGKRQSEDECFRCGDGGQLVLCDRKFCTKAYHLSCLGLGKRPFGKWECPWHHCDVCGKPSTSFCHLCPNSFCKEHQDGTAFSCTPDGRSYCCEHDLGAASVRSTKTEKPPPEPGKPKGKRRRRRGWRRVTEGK

[5] = A cytotoxicity screen of small molecule inhibitors of the PhoP region in Salmonella typhi identified in the primary screen. [Related pubchem assays: 1850, 1864, 1985 ]; type: functional
[6] = HEp-2 cell cytotoxicity, dose response, cytotoxicity control for RSV inhibitor project, HTS (AID 2410); type: functional; conditions: human respiratory syncytial virus
[7] = inhibitors of Bluetongue virus cytopathic effect, confirmation, arbovirus, BSR cells (AID 1250); type: functional;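 note: protection from viral cytopathic effect measured as cell viability by ATP luminescence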
Genome polyprotein = Genome polyprotein (dengue virus type 2, UniProt P29990); assay: Dengue-2 NS5 methyltransferase inhibitors, primary screen, biochemical, confirmation dose response (AID 588689); type: functional
[8] = target: T4, Long-chain-fatty-acid--AMP ligase FadD28 (Mycobacterium tuberculosis, UniProt P9WQ59); assay: Fluorescence polarization aasay to screen for inhibitors that compete for the binding of FadD28 to a bisubstrate Measured in Biochemical System Using Plate Reader - 2147-01_Inhibitor_Dose_CherryPick_Activity.; type: functional, Mycobacterium tuberculosis H37Rv
T4 sequence (P9WQ59 whole entry): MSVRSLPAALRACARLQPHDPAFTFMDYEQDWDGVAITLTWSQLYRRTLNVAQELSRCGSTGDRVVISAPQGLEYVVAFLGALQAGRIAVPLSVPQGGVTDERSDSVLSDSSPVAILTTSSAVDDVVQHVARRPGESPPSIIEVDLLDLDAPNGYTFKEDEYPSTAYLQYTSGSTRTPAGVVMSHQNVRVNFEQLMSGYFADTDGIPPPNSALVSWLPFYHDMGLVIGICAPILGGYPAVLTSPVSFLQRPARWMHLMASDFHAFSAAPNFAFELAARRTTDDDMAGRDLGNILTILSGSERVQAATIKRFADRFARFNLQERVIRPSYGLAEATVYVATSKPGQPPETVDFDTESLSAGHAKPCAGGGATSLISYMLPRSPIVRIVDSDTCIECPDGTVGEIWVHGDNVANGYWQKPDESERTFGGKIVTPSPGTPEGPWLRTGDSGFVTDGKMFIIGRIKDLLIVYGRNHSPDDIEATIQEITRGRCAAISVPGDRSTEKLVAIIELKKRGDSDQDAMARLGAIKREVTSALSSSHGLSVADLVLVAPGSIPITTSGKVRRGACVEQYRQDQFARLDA

[9] = target: T5, Voltage-gated N-type calcium channel alpha-1B subunit/Amyloid beta A4 precursor protein-binding family A member 1 (Homo sapiens, UniProt Q00975+Q02410); type: protein assay
[10] = target: T5, Voltage-gated N-type calcium channel alpha-1B subunit/Amyloid beta A4 precursor protein-binding family A member 1; type: protein assay; remark: listed apart in the source
[11] = target: DNA dC->dU-editing enzyme APOBEC-3A (Homo sapiens, UniProt P31941); assay: APOBEC3A DNA deaminase inhibitors, dose response, biochemical (AID 504722); type: functional
[12] = target: Glucose-6-phosphate 1-dehydrogenase (Homo sapiens, UniProt P11413); assay: human G6PD enzyme inhibitors, dose response, selectivity assay for P. falciparum G6PD inhibitor project, biochemical, fluorescence (AID 504792); type: functional
[13] = inhibitors of intracellular T. cruzi replication, confirmation, NIH3T3 host cells, beta-gal luminescence (AID 2044); type: functional, cell-based;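 note: intracellular parasites grown in NIH/3T3 mouse fibroblasts as host cells; luminescent beta-galactosidase reporter signal from transgenic T. cruzi replicating inside host cells; inhibitors lower the luminescence signal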
[14] = cytotoxicity toward NIH3T3 fibroblasts, dose response, counter-screen, cell-based, ATP luminescence, mouse fibroblasts (AID 2010); type: functional; conditions: NIH3T3;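 note: cells exposed to compound for about 90 hours before reading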
[15] = target: SWI/SNF-related matrix-associated actin-dependent regulator of chromatin subfamily A member 2 (Homo sapiens, UniProt P51531); assay: Luminescence-based cell-based high throughput dose response assay to identify activators of the function of SWI/SNF related, matrix associated, actin dependent regulator of chromatin, subfamily a, member 2 (SMARCA2, BRM).; type: functional
[16] = Counterscreen for activators of the function of SWI/SNF related, matrix associated, actin dependent regulator of chromatin, subfamily a, member 2 (SMARCA2, BRM): Luminescence-based cell-based high throughput dose response assay to identify non-selective compounds using the VP16 reporter assay.; type: functional

Sequence of Protein Rev (P05866 whole entry): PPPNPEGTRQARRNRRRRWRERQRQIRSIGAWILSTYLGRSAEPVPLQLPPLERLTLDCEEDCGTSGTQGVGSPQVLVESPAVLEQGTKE
T5 sequence (Q00975 whole entry): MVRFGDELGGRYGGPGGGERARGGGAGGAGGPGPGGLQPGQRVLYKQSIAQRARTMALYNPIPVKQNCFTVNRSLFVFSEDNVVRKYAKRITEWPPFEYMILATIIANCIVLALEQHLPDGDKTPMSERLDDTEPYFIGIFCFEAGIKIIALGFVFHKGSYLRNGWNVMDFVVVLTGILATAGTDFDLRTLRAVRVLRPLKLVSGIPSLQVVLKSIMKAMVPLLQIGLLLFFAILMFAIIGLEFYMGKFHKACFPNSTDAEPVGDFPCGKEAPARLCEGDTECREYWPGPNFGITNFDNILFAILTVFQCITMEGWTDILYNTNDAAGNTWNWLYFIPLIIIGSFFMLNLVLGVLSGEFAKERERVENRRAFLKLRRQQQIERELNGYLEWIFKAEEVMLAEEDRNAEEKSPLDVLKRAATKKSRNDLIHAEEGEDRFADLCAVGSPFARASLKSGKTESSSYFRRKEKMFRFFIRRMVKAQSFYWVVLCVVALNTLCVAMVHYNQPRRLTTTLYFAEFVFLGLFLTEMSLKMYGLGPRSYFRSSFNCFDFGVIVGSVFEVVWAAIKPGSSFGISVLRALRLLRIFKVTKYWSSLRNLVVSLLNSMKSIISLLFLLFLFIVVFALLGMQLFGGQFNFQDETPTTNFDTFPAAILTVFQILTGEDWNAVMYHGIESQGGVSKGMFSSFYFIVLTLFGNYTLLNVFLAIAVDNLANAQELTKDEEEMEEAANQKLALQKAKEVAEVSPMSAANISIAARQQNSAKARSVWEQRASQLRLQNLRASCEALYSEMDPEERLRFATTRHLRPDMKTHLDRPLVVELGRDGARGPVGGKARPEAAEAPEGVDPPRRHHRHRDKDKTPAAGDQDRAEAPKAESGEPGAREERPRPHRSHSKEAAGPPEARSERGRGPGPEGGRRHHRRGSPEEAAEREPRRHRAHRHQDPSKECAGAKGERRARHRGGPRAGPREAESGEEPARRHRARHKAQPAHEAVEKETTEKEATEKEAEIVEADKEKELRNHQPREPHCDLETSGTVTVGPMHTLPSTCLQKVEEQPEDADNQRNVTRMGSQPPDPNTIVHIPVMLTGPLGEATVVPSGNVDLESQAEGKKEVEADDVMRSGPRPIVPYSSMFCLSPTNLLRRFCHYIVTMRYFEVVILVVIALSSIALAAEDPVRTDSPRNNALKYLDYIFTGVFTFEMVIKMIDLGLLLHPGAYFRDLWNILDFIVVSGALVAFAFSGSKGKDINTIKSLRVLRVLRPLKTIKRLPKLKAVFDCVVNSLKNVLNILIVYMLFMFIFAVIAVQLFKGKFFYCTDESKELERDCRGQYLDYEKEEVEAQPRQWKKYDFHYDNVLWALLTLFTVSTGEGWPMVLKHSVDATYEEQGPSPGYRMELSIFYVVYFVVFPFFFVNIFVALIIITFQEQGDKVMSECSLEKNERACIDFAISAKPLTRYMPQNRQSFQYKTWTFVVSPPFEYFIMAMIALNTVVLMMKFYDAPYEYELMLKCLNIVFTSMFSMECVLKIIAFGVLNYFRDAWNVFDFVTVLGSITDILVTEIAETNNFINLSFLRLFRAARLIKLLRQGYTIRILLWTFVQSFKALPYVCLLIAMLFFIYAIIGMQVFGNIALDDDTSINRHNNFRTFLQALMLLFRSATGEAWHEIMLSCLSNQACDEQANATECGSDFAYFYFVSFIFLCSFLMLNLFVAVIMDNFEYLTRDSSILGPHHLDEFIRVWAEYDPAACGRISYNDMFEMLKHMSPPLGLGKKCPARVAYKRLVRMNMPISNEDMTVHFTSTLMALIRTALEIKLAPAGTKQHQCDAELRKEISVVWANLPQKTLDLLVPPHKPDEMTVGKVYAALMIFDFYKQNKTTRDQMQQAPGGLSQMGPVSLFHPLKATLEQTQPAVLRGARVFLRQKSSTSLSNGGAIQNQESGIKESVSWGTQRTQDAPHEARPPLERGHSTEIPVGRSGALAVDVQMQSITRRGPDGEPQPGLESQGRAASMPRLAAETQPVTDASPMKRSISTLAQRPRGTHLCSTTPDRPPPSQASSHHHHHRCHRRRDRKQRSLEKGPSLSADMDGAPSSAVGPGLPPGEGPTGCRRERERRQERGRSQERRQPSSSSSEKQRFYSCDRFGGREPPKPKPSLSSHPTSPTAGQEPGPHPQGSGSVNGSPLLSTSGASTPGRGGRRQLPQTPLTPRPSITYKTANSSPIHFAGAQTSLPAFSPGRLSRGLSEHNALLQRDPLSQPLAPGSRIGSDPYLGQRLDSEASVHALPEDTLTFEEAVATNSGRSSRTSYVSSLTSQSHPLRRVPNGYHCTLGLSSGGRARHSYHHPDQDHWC
T5 sequence (Q02410 whole entry): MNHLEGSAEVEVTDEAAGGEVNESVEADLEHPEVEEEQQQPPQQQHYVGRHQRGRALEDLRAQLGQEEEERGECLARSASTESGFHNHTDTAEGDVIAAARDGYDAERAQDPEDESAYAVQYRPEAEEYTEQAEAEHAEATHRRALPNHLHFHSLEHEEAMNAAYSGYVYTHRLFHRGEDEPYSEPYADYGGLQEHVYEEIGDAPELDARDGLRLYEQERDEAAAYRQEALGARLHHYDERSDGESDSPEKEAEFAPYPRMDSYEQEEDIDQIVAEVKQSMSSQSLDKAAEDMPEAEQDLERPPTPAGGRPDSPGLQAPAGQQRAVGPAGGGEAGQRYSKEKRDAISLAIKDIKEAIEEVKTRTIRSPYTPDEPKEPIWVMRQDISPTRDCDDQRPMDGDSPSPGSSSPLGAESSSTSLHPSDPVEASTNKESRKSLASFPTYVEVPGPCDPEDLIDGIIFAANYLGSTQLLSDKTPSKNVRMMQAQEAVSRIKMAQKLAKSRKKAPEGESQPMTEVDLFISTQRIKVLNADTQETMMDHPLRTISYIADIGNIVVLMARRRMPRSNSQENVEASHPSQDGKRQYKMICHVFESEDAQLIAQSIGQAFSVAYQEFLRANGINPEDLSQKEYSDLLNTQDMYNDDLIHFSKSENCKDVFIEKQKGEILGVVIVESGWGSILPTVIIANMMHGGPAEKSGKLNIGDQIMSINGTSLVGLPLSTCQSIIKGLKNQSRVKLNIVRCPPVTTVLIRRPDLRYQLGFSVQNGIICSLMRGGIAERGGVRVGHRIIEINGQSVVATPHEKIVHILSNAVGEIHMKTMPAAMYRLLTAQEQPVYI
Sequence of Glucose-6-phosphate 1-dehydrogenase (P11413 whole entry): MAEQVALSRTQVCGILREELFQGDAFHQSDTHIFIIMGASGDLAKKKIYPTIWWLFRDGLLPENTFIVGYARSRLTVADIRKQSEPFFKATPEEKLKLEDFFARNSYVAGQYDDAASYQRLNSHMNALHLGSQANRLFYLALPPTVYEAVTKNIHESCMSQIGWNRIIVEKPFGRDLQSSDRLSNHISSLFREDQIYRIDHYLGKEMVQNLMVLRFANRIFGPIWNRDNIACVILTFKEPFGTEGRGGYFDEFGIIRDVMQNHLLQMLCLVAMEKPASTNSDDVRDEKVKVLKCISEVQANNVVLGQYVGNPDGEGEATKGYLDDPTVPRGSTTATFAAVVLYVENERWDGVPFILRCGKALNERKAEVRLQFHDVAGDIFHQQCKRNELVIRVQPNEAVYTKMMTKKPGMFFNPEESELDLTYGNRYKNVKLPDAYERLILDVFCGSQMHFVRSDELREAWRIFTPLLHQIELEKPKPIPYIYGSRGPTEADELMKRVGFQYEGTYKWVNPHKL
Sequence of DNA dC->dU-editing enzyme APOBEC-3A (P31941 whole entry): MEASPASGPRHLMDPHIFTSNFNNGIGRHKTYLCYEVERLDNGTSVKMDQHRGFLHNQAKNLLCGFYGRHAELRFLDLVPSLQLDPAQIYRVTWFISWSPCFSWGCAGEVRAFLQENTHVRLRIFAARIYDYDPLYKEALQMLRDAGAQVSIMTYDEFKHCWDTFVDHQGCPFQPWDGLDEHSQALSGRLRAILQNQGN
Sequence of Genome polyprotein (P29990 2492-3391 limits assumed): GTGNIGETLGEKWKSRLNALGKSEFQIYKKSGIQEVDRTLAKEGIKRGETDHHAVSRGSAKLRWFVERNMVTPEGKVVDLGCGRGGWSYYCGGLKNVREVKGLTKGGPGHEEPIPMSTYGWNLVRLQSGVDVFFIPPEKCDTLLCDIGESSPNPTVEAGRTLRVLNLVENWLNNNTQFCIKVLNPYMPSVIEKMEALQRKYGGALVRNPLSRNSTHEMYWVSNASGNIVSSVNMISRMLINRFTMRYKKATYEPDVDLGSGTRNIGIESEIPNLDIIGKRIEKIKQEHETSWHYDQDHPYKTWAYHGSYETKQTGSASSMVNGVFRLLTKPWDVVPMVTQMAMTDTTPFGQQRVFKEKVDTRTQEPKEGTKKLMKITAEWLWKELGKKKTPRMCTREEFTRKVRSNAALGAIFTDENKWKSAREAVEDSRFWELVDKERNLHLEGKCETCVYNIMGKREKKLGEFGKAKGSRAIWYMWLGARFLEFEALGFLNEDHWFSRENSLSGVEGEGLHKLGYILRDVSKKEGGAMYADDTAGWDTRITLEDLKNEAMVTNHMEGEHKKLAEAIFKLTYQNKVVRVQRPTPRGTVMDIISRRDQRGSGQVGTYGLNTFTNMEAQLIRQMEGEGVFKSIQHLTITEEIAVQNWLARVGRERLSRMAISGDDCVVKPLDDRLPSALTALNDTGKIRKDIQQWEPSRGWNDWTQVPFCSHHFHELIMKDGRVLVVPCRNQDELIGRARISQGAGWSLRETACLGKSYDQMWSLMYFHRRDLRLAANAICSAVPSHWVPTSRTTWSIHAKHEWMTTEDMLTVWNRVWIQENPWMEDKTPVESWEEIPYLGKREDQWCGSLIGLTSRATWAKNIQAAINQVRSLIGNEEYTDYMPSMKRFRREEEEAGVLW

COc1ccccc1NC1=NC(c2ccc(Cl)cc2)N=C(N)N1 (stereo unspecified)
IC50 (Protein Rev): > 79.4 µM (not active)

N#C/C(=C/c1ccc(O)c(O)c1)C(=O)NCc1ccc(Cl)cc1
IC50 [1]: 35.9 µM (not active)
IC50 (Insulin-degrading enzyme): 11.6 µM (not active)
AC50 [2]: 6.32 µM (active)
IC50 [3]: 34.5 µM (active)
AC50 [4]: 5.16 µM (active)

COc1ccc(OC)c(-n2c(SCC(=O)NCc3ccco3)nnc2-c2c[nH]c3ccccc23)c1
IC50 (cells): > 50 µM (active)

COc1cccc(CNS(=O)(=O)c2ccc3c(c2)NC(=O)CS3)c1
EC50 [5]: > 50 µM (active)

O=C(O)CC/C(=C\c1ccc(N2CCCC2)c([N+](=O)[O-])c1)c1nc2ccccc2s1
CC50 [6]: 33.3 µM (active)
IC50 [7]: 27.8 µM (active)
IC50 (Genome polyprotein): 43.1 µM (active)
AC50 [8]: > 100 µM (inactive)

Cc1cc(C)c2c(=O)n(CC(=O)Nc3ccc(Br)c(C)c3)sc2n1
IC50 [1]: 17.5 µM (not active)
IC50 [9]: > 56.8 µM (not active)
IC50 [10]: > 50 µM (inactive)
IC50 (Insulin-degrading enzyme): 4.54 µM (active)
IC50 [11]: > 100 µM (inactive)
IC50 [12]: 49.2 µM (inactive)

O=C(Cc1ccc(Br)cc1)c1ccc(O)cc1O
EC50 [5]: > 50 µM (active)

CC(=N)/C(C#N)=C(/O)COc1ccc(Cl)cc1Cl
CC50 [6]: > 50 µM (active)
IC50 (cells): 49.6 µM (active)

Cc1nc(Nc2ccncc2)c2oc3ccccc3c2n1
IC50 (Protein Rev): > 79.4 µM (not active)
EC50 [13]: 2.47 µM (active)
EC50 [14]: > 60 µM (not active)
EC50 [15]: > 91.2 µM (inactive)
EC50 [16]: > 91.2 µM (inactive)
